Measurements taken from patent US12286400B2, “Isofagomine salts, methods of use and formulations” (TAKEDA PHARMACEUTICAL COMPANY LIMITED, priority 2019, dated 2025).

Assays:
[1] = Storage stress-tests at 80° C. in closed vials (CAD-HPLC, 1H-NMR, XRPD); format: physicochemical
Description: In order to obtain insight regarding thermal stability of the four crystalline IFG salts, storage stress-tests at 80° C. over several days were conducted. A sample of the free base (SP245-FB-P4), a fumarate sample (SP245-FUM-P5), a D-tartrate sample (SP245-DTA-P7), an L-tartrate sample (SP245-LTA-P5) and an oxalate sample SP245-OXA-P2 were stored at 80° C. for one, three and seven days in closed vials. Samples were tested by CAD and ^1H-NMR.
CAD-HPLC was performed in order to identify the possible adducts or thermal degradation product that could be generated upon storage under the given conditions. All samples were examined by CAD-HPLC; however, no considerable changes were observed between the starting materials and the stored samples. […] In addition, XRPD was carried out for the seven-day stored crystalline salt samples and the XRPD patterns before and after storage were essentially identical.
NMR spectroscopy was conducted on the seven-day stored samples.

mutant GCase = conditions: in vitro, fibroblasts from Gaucher patients; cited from earlier work
[2] = Dynamic vapor sorption (DVS); format: physicochemical; conditions: for additional weight gain upon storage at 95% RH: holding at 95% RH; for mass gain until 95% RH: scanning up to 95% RH; for gain in weight when increasing the RH from 0 to 80%: RH 0 to 80%
Text: The behavior of the IFG quinate salt, sample SP245-QNC-P2, was investigated in the presence of variable water vapor pressure using DVS measurement. The result from the DVS test is presented in FIG. 6 and FIG. 6B as the DVS isotherm of sample SP245-QNC-P2: the change of relative sample weight (red curve) and relative humidity (blue curve) as a function of time.
The SP245-QNC-P2 salt prepared in example 1 is hygroscopic at high relative humidity; i.e., above about 80% RH.
The effect of changes in relative humidity on the IFG fumarate sample SP245-FUM-P4 was studied using DVS.
The IFG fumarate salt is hygroscopic at relative humidities above about 80%.
The effect of changes in relative humidity on the IFG oxalate salt sample SP245-OXA-P1 was studied using DVS.
The oxalate salt is hygroscopic above 80% RH.
The effect of changes in relative humidity on the crystalline IFG tartrate salt sample SP245-DTA-P3 was studied using DVS.

TG-FTIR thermogram = format: physicochemical
Description: The obtained crystalline form SP245-QNC-P2 is anhydrous/non-solvated. […] Decomposition is observable above 200° C.
The fumarate salt is a solvent and water-free form. Decomposition is observable above 150° C.

Molecule: OC[C@H]1CNC[C@@H](O)[C@@H]1O [SP245-FB-P4, (3R,4R,5R)-3,4-dihydroxy-5-hydroxymethylpiperidine, reference compound]
- CAD-HPLC Area % ([1]; 80° C., closed vial, 1 day): 80.2%
- CAD-HPLC Area % ([1]; 80° C., closed vial, 3 days): 80.6%
- CAD-HPLC Area % ([1]; 80° C., closed vial, 7 days): 80.4%
- NMR after storage compared to the non-stressed sample ([1]; 80° C., seven days): several additional NMR signals were observed after storage
- CAD-HPLC Area % ([1]; starting material): 81.1%
- effect on activity of mutant GCase (mutant GCase): increase the activity of mutant GCase

Molecule: O=C(O)C(O)C(O)C(=O)O.OC[C@H]1CNC[C@@H](O)[C@@H]1O [SP245-LTA-P5, IFG L-(+)-tartrate]
- CAD-HPLC Area % ([1]; 80° C., closed vial, 1 day): 83.9%
- CAD-HPLC Area % ([1]; 80° C., closed vial, 3 days): 84.1%
- CAD-HPLC Area % ([1]; 80° C., closed vial, 7 days): 85.3%
- CAD-HPLC Area % ([1]; starting material): 84.3%

Molecule: isofagomine D-(−)-tartrate [SP245-DTA-P3]
- CAD-HPLC Area % ([1]; 80° C., closed vial, 1 day): 85%
- CAD-HPLC Area % ([1]; 80° C., closed vial, 3 days): 85.1%
- CAD-HPLC Area % ([1]; 80° C., closed vial, 7 days): 85.6%
- CAD-HPLC Area % ([1]; starting material): 86.3%
- relative humidity up to which the salt is not hygroscopic ([2]; DVS): 70%
- mass change upon increasing the relative humidity from 0% to 70% ([2]; DVS, RH 0% to 70%): No mass change
- additional weight gain upon storage at 95% RH ([2]; DVS): 70%
- mass gain until 95% RH ([2]; DVS): 32%

Molecule: isofagomine fumarate [SP245-FUM-P4]
- Decomposition observable above (TG-FTIR thermogram): above 150 °C
- CAD-HPLC Area % ([1]; 80° C., closed vial, 1 day): 86.9%
- CAD-HPLC Area % ([1]; 80° C., closed vial, 3 days): 87.1%
- CAD-HPLC Area % ([1]; 80° C., closed vial, 7 days): 87.8%
- CAD-HPLC Area % ([1]; starting material): 87.9%
- relative humidity above which the salt is hygroscopic ([2]; DVS): about 80 % RH
- gain in weight when increasing the RH from 0 to 80% ([2]; DVS): no considerable gain in sample mass
- weight loss when decreasing the relative humidity from 50 to 0% RH ([2]; DVS, RH 50 to 0%): < 1 weight %
- additional weight gain upon storage at 95% RH ([2]; DVS): 47%
- mass gain until 95% RH ([2]; DVS): 11%
- gain in weight at 95% RH compared to the first cycle ([2]; DVS, second cycle): 5%
- XRPD of sample recovered after DVS measurement [2]: correspond to the sample SP245-FUM-P4 used as starting material

Molecule: isofagomine oxalate [SP245-OXA-P1]
- CAD-HPLC Area % ([1]; 80° C., closed vial, 1 day): 83.6%
- CAD-HPLC Area % ([1]; 80° C., closed vial, 3 days): 82.9%
- CAD-HPLC Area % ([1]; 80° C., closed vial, 7 days): 83.6%
- CAD-HPLC Area % ([1]; starting material): 85.9%
- relative humidity above which the salt is hygroscopic ([2]; DVS): 80 % RH
- gain in weight when increasing the RH from 0 to 75% ([2]; DVS, RH 0 to 75%): no gain in weight
- weight change when decreasing the relative humidity from 50 to 0% ([2]; DVS, RH 50 to 0%): No significant loss in weight
- additional weight gain upon storage at 95% RH ([2]; DVS): 90%
- mass gain until 95% RH ([2]; DVS): 30%
- XRPD of sample recovered after DVS measurement [2]: corresponds to the starting material

Molecule: isofagomine quinate [SP245-QNC-P2]
- Decomposition observable above (TG-FTIR thermogram): above 200 °C
- relative humidity above which the salt is hygroscopic ([2]; DVS): about 80 % RH
- gain in weight when increasing the RH from 0 to 80% ([2]; DVS): no gain in weight
- weight change when decreasing the relative humidity from 50 to 0% ([2]; DVS, RH 50 to 0%): No significant loss in weight
- additional weight gain upon storage at 95% RH ([2]; DVS): 70%
- mass gain until 95% RH ([2]; DVS): 20%
- XRPD of sample recovered after DVS measurement [2]: no form change was observed
